# Measurements taken from article PMC11620503 (Antimicrobial Agents and Chemotherapy, 2024).
# Values joined by “and” are separate entries in the source; they are usually repeats but may differ in a detail not shown here. Identical values can stand only once. Like-named read-outs stand apart in the source and are kept apart here.
# Experiments:
# [1] = target: VIM-2 (Escherichia coli, UniProt Q5U7L7); experiment: Ki app determination (Waley's method)
# [2] = target: CTX-M-27 (Escherichia coli, UniProt Q840M4); experiment: Ki app determination (Waley's method)
# [3] = target: NDM-7 (Klebsiella pneumoniae, UniProt C7C422, D130N/M154L); experiment: Ki app determination (Waley's method)
# [4] = target: IMP-1 (Serratia marcescens, UniProt P52699); experiment: Ki app determination (Waley's method)
# [5] = target: OXA-72 (Acinetobacter baumannii, UniProt Q5XQU0); experiment: Ki app determination (Waley's method)
# [6] = target: CTX-M-14 (Escherichia coli, UniProt Q9L5C7); experiment: Ki app determination (Waley's method)
# [7] = target: OXA-24 (Acinetobacter baumannii, UniProt Q8RLA6); experiment: Ki app determination (Waley's method)
# [8] = target: NDM-4 (Klebsiella pneumoniae, UniProt C7C422, M154L); experiment: Ki app determination (Waley's method)
# [9] = target: CTX-M-15 (Escherichia coli, UniProt Q9EXV5); experiment: Ki app determination (Waley's method)
# [10] = target: OXA-23 (Acinetobacter baumannii, UniProt Q9L4P2); experiment: Ki app determination (Waley's method)
# [11] = target: VIM-1 (Pseudomonas aeruginosa, UniProt A0A0F7KYQ8); experiment: Ki app determination (Waley's method)
# [12] = target: OXA-65 (Acinetobacter baumannii, UniProt Q58XD3); experiment: Ki app determination (Waley's method)
# [13] = target: NDM-6 (Klebsiella pneumoniae, UniProt C7C422, A233V); experiment: Ki app determination (Waley's method)
# [14] = target: OXA-66 (Acinetobacter baumannii, UniProt Q58XD2); experiment: Ki app determination (Waley's method)
# [15] = target: SHV-2 (Klebsiella pneumoniae, UniProt P0A9Z8); experiment: Ki app determination (Waley's method)
# [16] = target: SHV-5 (Klebsiella pneumoniae, UniProt P0A3M1); experiment: Ki app determination (Waley's method)
# [17] = target: NDM-5 (Klebsiella pneumoniae, UniProt C7C422, M154L/V88L); experiment: Ki app determination (Waley's method)
# [18] = target: IMP-6 (Serratia marcescens, UniProt P52699, S214G); experiment: Ki app determination (Waley's method)
# [19] = target: NDM-1 (Klebsiella pneumoniae, UniProt C7C422); experiment: Ki app determination (Waley's method)
# [20] = target: SHV-12 (Klebsiella pneumoniae, UniProt P0A3M1, L31Q); experiment: Ki app determination (Waley's method)
# [21] = target: OXA-48 (Klebsiella pneumoniae, UniProt Q6XEC0); experiment: Ki app determination (Waley's method)
# [22] = target: KPC-2 (Klebsiella pneumoniae, UniProt Q9F663); experiment: Ki app determination (Waley's method)
# [23] = target: KPC-38 (Klebsiella pneumoniae, UniProt Q9F663); experiment: Ki app determination (Waley's method); settings: read-out: Ki app, means from three independent studies
# [24] = target: KPC-3 (Klebsiella pneumoniae, UniProt Q9F663, H272Y); experiment: Ki app determination (Waley's method)
# [25] = system: 96 P. aeruginosa; experiment: MIC, broth microdilution; format: cell-based, Pseudomonas aeruginosa; settings: Pseudomonas aeruginosa (96)
# [26] = system: 55 isolates of A. baumannii; experiment: MIC, broth microdilution; format: cell-based, Acinetobacter baumannii; settings: Acinetobacter baumannii (55)
# [27] = system: serine-carbapenemase-producing isolates (Enterobacterales); experiment: MIC, broth microdilution; format: cell-based; settings: Enterobacterales with serine-carbapenemases (80); fixed concentration (μg/mL) in label
# [28] = system: MEM-nonsusceptible Enterobacterales; experiment: MIC, broth microdilution; format: cell-based; settings: MEM-nonsusceptible Enterobacterales (127), cefiderocol 126 isolates
# [29] = system: MBL-producing isolates (Enterobacterales); experiment: MIC, broth microdilution; format: cell-based
# [30] = system: MEM-nonsusceptible Enterobacterales with metallo-carbapenemases; experiment: MIC, broth microdilution; format: cell-based; settings: MEM-nonsusceptible Enterobacterales with metallo-carbapenemases (55), cefiderocol 54 isolates
# [31] = system: MEM-, imipenem/relebactam-, and ceftolozane/tazobactam-nonsusceptible P. aeruginosa; experiment: MIC, broth microdilution; format: cell-based, Pseudomonas aeruginosa
# [32] = system: 207 Enterobacterales including carbapenem-resistant isolates; experiment: MIC, broth microdilution; format: cell-based; settings: All Enterobacterales (207), cefiderocol 205 isolates
# [33] = system: MEM-nonsusceptible Enterobacterales with serine-carbapenemases; experiment: MIC, broth microdilution; format: cell-based; settings: MEM-nonsusceptible Enterobacterales with serine-carbapenemases (58)
# [34] = CLSI breakpoints, marked c: breakpoints for β-lactam alone
# [35] = fixed concentration (μg/mL) in label
# [36] = CLSI breakpoints, marked c: breakpoints for β-lactam alone, tigecycline: FDA breakpoints
# [37] = Enterobacterales with metallo-carbapenemases (74), cefiderocol 73 isolates, CLSI breakpoints, marked c: breakpoints for β-lactam alone, tigecycline: FDA breakpoints
# [38] = Enterobacterales with metallo-carbapenemases (74), cefiderocol 73 isolates, fixed concentration (μg/mL) in label
# [39] = MEM-nonsusceptible Pseudomonas aeruginosa (76), CLSI breakpoints, marked c: breakpoints for β-lactam alone
# [40] = MEM-nonsusceptible Pseudomonas aeruginosa (76), fixed concentration (μg/mL) in label
compound,measurement,setting,value
"O=C(NC1CCNCC1)[C@@H]1CC[C@@H]2CN1C(=O)N2OS(=O)(=O)O [Relebactam, relebactam]",Ki,[1],> 100000 nM
same,Ki,[2],3.62 ± 1.2 nM
same,Ki,[3],> 100000 nM
same,Ki,[4],> 100000 nM
same,Ki,[5],≥ 37400 nM
same,Ki,[6],5.96 ± 3.22 nM
same,Ki,[7],> 100000 nM
same,Ki,[8],> 100000 nM
same,Ki,[9],0.841 ± 0.235 nM
same,Ki,[10],5640 nM
same,Ki,[11],> 100000 nM
same,Ki,[12],> 100000 nM
same,Ki,[13],> 100000 nM
same,Ki,[14],> 100000 nM
same,Ki,[15],0.373 ± 0.0856 nM
same,Ki,[16],6.26 ± 1.53 nM
same,Ki,[17],> 100000 nM
same,Ki,[18],> 100000 nM
same,Ki,[19],> 100000 nM
same,Ki,[20],19.3 ± 6.32 nM
"C[C@]1(Cn2ccnn2)[C@H](C(=O)O)N2C(=O)C[C@H]2S1(=O)=O [Tazobactam, tazobactam]",Ki,[1],> 100000 nM
same,Ki,[2],0.0403 ± 0.0162 nM
same,Ki,[3],> 100000 nM
same,Ki,[4],> 100000 nM
same,Ki,[5],78.9 ± 8.96 nM
same,Ki,[21],5.32 ± 0.329 nM
same,Ki,[7],100 ± 45.6 nM
same,Ki,[8],> 100000 nM
same,Ki,[9],0.0387 ± 0.00434 nM
same,Ki,[22],159 ± 48.2 nM
same,Ki,[23],112 ± 14.5 nM
same,Ki,[10],14 ± 5.31 nM
same,Ki,[11],> 100000 nM
same,Ki,[12],> 100000 nM
same,Ki,[13],> 100000 nM
same,Ki,[14],> 100000 nM
same,Ki,[15],0.187 ± 0.104 nM
same,Ki,[16],1.84 ± 0.243 nM
same,Ki,[17],> 100000 nM
same,Ki,[18],> 100000 nM
same,Ki,[19],> 100000 nM
same,Ki,[24],270 ± 80.8 nM
same,Ki,[20],1.68 ± 0.266 nM
"NC(=O)[C@@H]1CC[C@@H]2CN1C(=O)N2OS(=O)(=O)O [Avibactam, avibactam]",Ki,[1],> 100000 nM
same,Ki,[2],1.29 ± 0.663 nM
same,Ki,[3],> 100000 nM
same,Ki,[4],> 100000 nM
same,Ki,[5],691 ± 63.8 nM
same,Ki,[6],2.35 ± 0.763 nM
same,Ki,[8],> 100000 nM
same,Ki,[9],0.369 ± 0.0569 nM
same,Ki,[11],> 100000 nM
same,Ki,[12],5900 nM
same,Ki,[13],> 100000 nM
same,Ki,[14],7350 nM
same,Ki,[15],2.26 ± 1.44 nM
same,Ki,[16],2.15 ± 0.264 nM
same,Ki,[17],> 100000 nM
same,Ki,[18],> 100000 nM
same,Ki,[19],> 100000 nM
same,Ki,[20],2.55 ± 0.696 nM
colistin,CLSI MIC interpretation I (intermediate),[25]; [34],100%
same,CLSI MIC interpretation R (resistant),[25]; [34],0%
same,MIC50,[25]; [35],1 µg/mL
same,MIC90,[25]; [35],1 µg/mL
same,MIC Range,[25]; [35],0.25 to 2 µg/mL
same,CLSI MIC interpretation I (intermediate),[26]; [34],94.5%
same,CLSI MIC interpretation R (resistant),[26]; [34],5.5%
same,MIC50,[26]; [35],1 µg/mL
same,MIC90,[26]; [35],2 µg/mL
same,MIC50,[27],0.5 µg/mL
same,MIC90,[27],>64 µg/mL
same,CLSI MIC interpretation I (intermediate),[28]; [36],77.2%
same,CLSI MIC interpretation R (resistant),[28]; [36],22.8%
same,MIC50,[28]; [35],0.5 µg/mL
same,MIC90,[28]; [35],>64 µg/mL
same,CLSI MIC interpretation I (intermediate),[29]; [37],89.2%
same,CLSI MIC interpretation R (resistant),[29]; [37],10.8%
same,MIC50,[29]; [38],0.5 µg/mL
same,MIC90,[29]; [38],4 µg/mL
same,MIC90,"[29]; MBL-producing isolates, comparators",≤ 4 µg/mL
same,CLSI MIC interpretation R (resistant),[30]; [36],14.5%
same,MIC50,[30]; [35],0.5 µg/mL
same,MIC90,[30]; [35],8 µg/mL
same,CLSI MIC interpretation I (intermediate),[31],100%
same,CLSI MIC interpretation R (resistant),[31],0%
same,MIC50,[31],1 µg/mL
same,MIC90,[31],1 µg/mL
same,MIC Range,[31],0.5 to 2 µg/mL and 0.25 to 2 µg/mL
same,CLSI MIC interpretation (%) I,"[31]; I, intermediate (including susceptible dose-dependent), CLSI breakpoints, last subgroup of Table 2",100%
same,CLSI MIC interpretation I (intermediate),[31]; [39],100%
same,CLSI MIC interpretation R (resistant),[31]; [39],0%
same,MIC50,[31]; [40],1 µg/mL
same,MIC90,[31]; [40],1 µg/mL
same,MIC Range,[31]; [40],0.25 to 2 µg/mL
same,CLSI MIC interpretation (%) R,"[31]; R, resistant, CLSI breakpoints, last subgroup of Table 2",0%
same,MIC50,"[31]; Table 2, broth microdilution",1 µg/mL
same,MIC90,"[31]; Table 2, broth microdilution",1 µg/mL
same,CLSI MIC interpretation I (intermediate),[32]; [36],78.3%
same,CLSI MIC interpretation R (resistant),[32]; [36],21.7%
same,MIC50,[32]; [35],0.5 µg/mL
same,MIC90,[32]; [35],>64 µg/mL
same,CLSI MIC interpretation I (intermediate),[33]; [36],74.1%
same,CLSI MIC interpretation R (resistant),[33]; [36],25.9%
same,MIC50,[33]; [35],0.5 µg/mL
same,MIC90,[33]; [35],>64 µg/mL
